Marks after values point to notes of the source that are not given here.
How the values were obtained:
[1] = half-life of PARP1i-FL (T. Reiner et al., unpublished); conditions: in vivo
[2] = cited from earlier work
V79 cells = conditions: DNA-incorporated; cited from earlier work

Structure (SMILES) | tα1/2 [1] [min] | tα1/2, share of phase [1] [%] | tβ1/2 [1] [min] | tβ1/2, share of phase [1] [%] | weighted t1/2 [1] [min^c] | plasma free fraction [2] [%^b] | RBE (V79 cells)
Cc1cc(C)n2c1C=C1C=CC(CCC(=O)N3CCN(C(=O)c4cc(Cc5n[nH]c(=O)c6ccccc56)ccc4F)CC3)=[N+]1[B-]2(F)F [PARP1i-FL] | 1.2 | 73.2 | 88.2 | 26.8 | 24.5 | 0.7 | –
O=c1[nH]c(=O)n([C@H]2C[C@H](O)[C@@H](CO)O2)cc1I [^125I-IdUrd, 5-iodo-2′-deoxy uridine] | – | – | – | – | – | – | about 8

Reference: patent publication US10512700B2, “Radiohalide-labeled targeted diagnostics and therapeutics” (Memorial Sloan Kettering Cancer Center, priority 2014, dated 2019)
